Several values for one entry are separate records, joined by “and”; a condition that tells them apart may be missing. Equal values may be shown once. Entries after “also recorded” stand apart in the source; their conditions may differ.
How the values were obtained:
Sprague-Dawley rats = experiment: Intracerebroventricular L-DOPA infusion, plasma glucose and insulin; assay type: in vivo; conditions: 10 mM i.c.v. infusion, 5 µL/h, 3.5 h
human D3R [1] = biological target: T1, human D3R (Homo sapiens, UniProt P35462); experiment: D3R-mediated mitogenesis; assay type: cell-based; conditions: for Emax: read-out: D3R mitogenesis Emax
T1 sequence (P35462 whole entry): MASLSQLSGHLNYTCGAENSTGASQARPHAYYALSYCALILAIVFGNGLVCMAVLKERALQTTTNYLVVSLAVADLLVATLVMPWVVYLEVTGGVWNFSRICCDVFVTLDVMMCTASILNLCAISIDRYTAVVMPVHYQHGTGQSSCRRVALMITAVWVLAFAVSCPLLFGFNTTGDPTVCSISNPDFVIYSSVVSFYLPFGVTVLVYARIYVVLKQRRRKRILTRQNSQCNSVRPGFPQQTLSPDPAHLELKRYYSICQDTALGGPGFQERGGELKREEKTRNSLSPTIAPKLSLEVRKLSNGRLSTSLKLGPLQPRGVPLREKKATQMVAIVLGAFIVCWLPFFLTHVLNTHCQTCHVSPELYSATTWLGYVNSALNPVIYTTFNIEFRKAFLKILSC

INS-1E cells = experiment: Glucose-stimulated insulin secretion; assay type: cell-based, rat
human D2R [2] = biological target: T2, human D2R (Homo sapiens, UniProt P14416); experiment: cell-based; assay type: cell-based; conditions: for Emax: read-out: D2R mitogenesis Emax
Target sequence in this assay (P14416 whole entry): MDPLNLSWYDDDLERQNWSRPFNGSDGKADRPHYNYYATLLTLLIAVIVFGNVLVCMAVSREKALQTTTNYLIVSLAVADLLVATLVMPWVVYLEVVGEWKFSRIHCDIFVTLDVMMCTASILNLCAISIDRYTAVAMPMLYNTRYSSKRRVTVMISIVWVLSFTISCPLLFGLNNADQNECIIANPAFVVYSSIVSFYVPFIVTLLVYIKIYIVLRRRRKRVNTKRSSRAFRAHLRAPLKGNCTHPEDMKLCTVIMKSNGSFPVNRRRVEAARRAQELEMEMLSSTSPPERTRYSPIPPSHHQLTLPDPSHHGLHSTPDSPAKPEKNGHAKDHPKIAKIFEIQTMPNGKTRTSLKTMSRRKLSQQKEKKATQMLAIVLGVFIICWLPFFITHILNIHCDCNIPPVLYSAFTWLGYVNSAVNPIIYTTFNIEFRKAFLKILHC

human D2R [3] = biological target: T2, human D2R; experiment: biochemical
Target sequence in this assay (P14416 whole entry): as above

[4] = In vivo pharmacokinetics, plasma and brain levels; parameters: species or system CD1 mice; conditions: for Brain Conc.: mean ± SEM, n=3; for Kp at 0.25 h / Kp at 1 h / concentration at 15 min / concentration at 60 min: male, CD1, mouse, 10 mg/kg; for Kp at 0.25 h / Kp at 1 h: brain, iv; for concentration at 15 min / concentration at 60 min: plasma, intravenous
human D2R [5] = biological target: T2, human D2R; conditions: [3H]-(R)-(+)-7-OH-DPAT
Target sequence in this assay (P14416 whole entry): as above

human D3R [6] = biological target: T1, human D3R; experiment: biochemical
human D3R [7] = biological target: T1, human D3R; experiment: Radioligand competition binding, HEK293 membranes, hD3R; conditions: [3H]-(R)-(+)-7-OH-DPAT
human DA D4.4 receptors = biological target: T3, human DA D4.4 receptors (Homo sapiens, UniProt P21917); assay type: cell-based; conditions: inhibition of forskolin-stimulated cAMP formation
T3 sequence (P21917 1-419): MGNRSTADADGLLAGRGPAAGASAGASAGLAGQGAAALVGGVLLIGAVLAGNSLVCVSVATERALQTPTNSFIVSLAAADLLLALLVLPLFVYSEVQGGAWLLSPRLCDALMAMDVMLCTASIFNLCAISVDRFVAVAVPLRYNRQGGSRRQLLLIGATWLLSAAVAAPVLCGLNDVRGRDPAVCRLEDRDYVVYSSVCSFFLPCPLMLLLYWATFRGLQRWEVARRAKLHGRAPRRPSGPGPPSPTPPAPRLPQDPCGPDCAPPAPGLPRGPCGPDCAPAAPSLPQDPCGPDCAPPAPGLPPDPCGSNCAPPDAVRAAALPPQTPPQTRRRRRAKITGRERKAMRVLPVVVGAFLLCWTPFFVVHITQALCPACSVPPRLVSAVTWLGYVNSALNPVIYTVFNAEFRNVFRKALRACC

human D4R = experiment: Radioligand competition binding, HEK293 membranes, hD4R; conditions: [3H]-(R)-(+)-7-OH-DPAT
[8] = tested on: Western diet-fed wild-type C57BL/6J mice; experiment: Body weight in diet-induced obesity model; assay type: in vivo; conditions: 10 mg/kg i.p. daily, at 12 weeks
[9] = tested on: Western diet-fed wild-type C57BL/6J mice; experiment: Oral glucose tolerance testing in diet-induced obesity model; assay type: in vivo; conditions: for fasting blood glucose: 6-h fast
[10] = tested on: Western diet-fed wild-type C57BL/6J mice; experiment: Insulin tolerance testing in diet-induced obesity model; assay type: in vivo; conditions: 10 mg/kg i.p. daily, 12 weeks
[11] = Mouse microsomal stability assay; assay type: in vitro ADME; conditions: mouse liver microsomes + NADPH, 1 µM, 30 min
human D2R [12] = biological target: T2, human D2R; assay type: cell-based
Target sequence in this assay (P14416 whole entry): as the sequence (P14416 whole entry) above
Target sequence in this assay (P63096 2-354 partner limits assumed): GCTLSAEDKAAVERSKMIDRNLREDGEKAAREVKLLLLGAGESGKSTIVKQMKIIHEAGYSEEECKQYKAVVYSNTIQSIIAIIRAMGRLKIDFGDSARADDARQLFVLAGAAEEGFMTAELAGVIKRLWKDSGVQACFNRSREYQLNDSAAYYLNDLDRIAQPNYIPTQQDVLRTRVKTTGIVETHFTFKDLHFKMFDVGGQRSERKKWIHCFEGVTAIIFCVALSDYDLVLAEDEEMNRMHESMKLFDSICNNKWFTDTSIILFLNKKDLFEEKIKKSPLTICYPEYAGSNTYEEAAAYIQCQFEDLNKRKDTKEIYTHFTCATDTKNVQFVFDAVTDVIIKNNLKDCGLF

[13] = 10 mg/kg i.v., 60 min versus 15 min

Structure (SMILES)	EC50 (human D3R [1]) [nM]	Emax (human D3R [1]) [%]	decrease in GSIS potency versus unmodified parent (INS-1E cells) [fold]	Emax (human D2R [2]) [%]	Ki (human D2R [3]) [nM]	Brain Conc. ([4]; 10 mg/kg i.v., 15 min) [pmol/g]	Brain Conc. ([4]; 10 mg/kg i.v., 60 min) [pmol/g]	Kp at 0.25 h [4]	Kp at 1 h [4]	concentration at 15 min [4] [nM]	concentration at 60 min [4] [nM]	D3R/D2R ratio of binding affinity (human D2R [5])	Ki (human D3R [6]) [nM]	other results
N[C@@H](Cc1ccc(O)c(O)c1)C(=O)O [L-DOPA]														plasma glucose versus saline vehicle (Sprague-Dawley rats): did not significantly impact; plasma insulin versus saline vehicle (Sprague-Dawley rats): did not significantly impact
CC(C)C[C@H]1C(=O)N2CCC[C@H]2[C@]2(O)O[C@](NC(=O)[C@@H]3C=C4c5cccc6[nH]c(Br)c(c56)C[C@H]4[N+](C)(C)C3)(C(C)C)C(=O)N12.[I-] [AB01–60, (6aR,9R)-5-Bromo-9-(((2R,5S,10aS,10bS)-10b-hydroxy-5-isobutyl-2-isopropyl-3,6-dioxooctahydro-8H-oxazolo[3,2-a]pyrrolo[2,1-c]pyrazin-2-yl)carbamoyl)-7,7-dimethyl-4,6,6a,7,8,9-hexahydroindolo[4,3-fg]quinolin-7-ium iodide]	38 ± 11	91	57.7	88	3.14 ± 0.34	1282.3 ± 130.7	651.9 ± 133.7	0.3 ± 0.03	0.51 ± 0.06	4260 ± 381	1280 ± 71.1	5.57	17.5 ± 4.9	diminished potency in D3R-mediated mitogenesis versus unmodified parent (human D3R [1]): 11.2 fold; diminished potency in D2R-mediated mitogenesis versus unmodified parent (human D2R [2]): 15.6 fold; plasma levels greater compared to bromocriptine ([4]; 10 mg/kg i.v., 60 min, listed as BrMeI): 8 fold and ~ 8 fold; diminished D2R binding affinity compared to unmodified parent compound (human D2R [5]): 5.3 fold; diminished D3R binding affinity compared to unmodified parent compound (human D3R [7]): 8.5 fold
CCC[N+]1(C)CCC[C@@H]2Cc3n[nH]cc3C[C@H]21.[I-] (stereo partly drawn) [AB01–59, (4aR,8aR)-5-Methyl-5-propyl-4,4a,5,6,7,8,8a,9-octahydro-2H-pyrazolo[3,4-g]quinolin-5-ium iodide]			5.9											reduced efficacy in GSIS versus unmodified parent (decrease) (INS-1E cells): 48.4%
Cc1cccc(NC(=O)C[N+]2(C)CCC(c3ccccc3)CC2)c1.[I-] (stereo not shown) [AB01–102, 1-Methyl-1-(2-oxo-2-(m-tolylamino)ethyl)-4-phenylpiperidin-1-ium iodide]														diminished potency in D4R cAMP assay compared to unmodified parent (human DA D4.4 receptors): 731.9 fold; functional behaviour in D4R cAMP assay (human DA D4.4 receptors; relative to (−)-quinpirole): partial agonists; loss of D4R binding affinity compared to unmodified parent (human D4R): 61.7 fold
CC(C)C[C@H]1C(=O)N2CCC[C@H]2[C@]2(O)O[C@](NC(=O)[C@@H]3C=C4c5cccc6[nH]c(Br)c(c56)C[C@H]4N(C)C3)(C(C)C)C(=O)N12 [Bromocriptine, bromocriptine]	3.4 ± 1.1			99	0.59 ± 0.17	995.2 ± 188.0	71.1 ± 2.3	0.74 ± 0.11	0.45 ± 0.05	1340 ± 52.2	159 ± 15	3.46	2.05 ± 0.56	body weight versus vehicle [8]: neither systemic bromocriptine nor BrMeI treatments had significant effects on weight; also recorded: no significant effect; glucose tolerance (OGTT) versus vehicle ([9]; 10 mg/kg i.p. daily, 12 weeks): significant improvements in glucose tolerance; also recorded: improvement in glucose tolerance; fasting blood glucose ([9]; 10 mg/kg i.p. daily, 12 weeks): significantly lower fasting blood glucose; fasting blood glucose ([9]; 10 mg/kg i.p. daily, 12 weeks, listed as bromocriptine): significantly lower fasting glucose; glucose tolerance (OGTT) versus i.c.v. vehicle ([9]; i.c.v. daily, 8 weeks (10 mg/kg)): did not significantly modify glucose tolerance; also recorded: no significant effect on glucose tolerance; glucose tolerance ([9]; systemic administration, 8 weeks, data not shown): sufficient to improve glucose tolerance; insulin sensitivity / blood glucose during ITT versus vehicle ([10]; 1.5 U/kg insulin): significant improvements in insulin sensitivity; plasma insulin during ITT ([10]; initial 15 min of ITT): significantly enhanced plasma insulin levels; % drug remaining [11]: entirely metabolized; % drug remaining ([11]; listed as bromocriptine): complete disappearance; less efficacy than DA in Gαi1 recruitment to D2R (human D2R [12]): 47%; decrease in brain level by 60 min post-administration [4, 13]: 92.9%; decrease in plasma level by 60 min post-administration [4, 13]: 88.2%
CN[C@@H]1Cc2cccc3[nH]c(=O)n(c23)C1 [Sumanirole, sumanirole]	224 ± 24	180		110										

— publication PMC10962703 (bioRxiv, 2024)
